Where a SMILES comes first, the peptide text is derived from it.

The values below come from the OPERA property sets (Mansouri et al. 2018).

Regarding `CSCCC(N)C(=O)NC(CC(C)C)C(=O)O` (stereo not drawn) (H-Met-Leu-OH; configuration not given here), the logP was -1.84. The value for `O=CC(=C(Cl)C(=O)O)C(Cl)Cl` was 1.13; that for `CC(C)C(N)C(=O)NC(Cc1ccccc1)C(=O)NC(Cc1ccc(O)cc1)C(=O)O` (configuration not stated) was -1.5; that for `O=C1c2cc(Cl)ccc2OCN1CCO[N+](=O)[O-]` was 2.3. The value for `CCCOc1ccccc1NC(=O)OCCN1CCCCC1` was 4.23; that for `NC(Cc1ccccc1)C(=O)NCC(=O)NCC(=O)NC(Cc1ccccc1)C(=O)O` (configuration not stated) (H-FGGF-OH; configuration not given here) was -1.51; that for `COc1ccc(-c2cn3cccnc3n2)c(OC)c1` was 1.94. In the case of `COc1cc(-n2c(C(F)(F)F)nn(C)c2=S)cc(OC)c1OC` it was 2.04. The compound `Cc1ccc2c(c1)C(=O)N(CCO[N+](=O)[O-])CO2` returned a logP of 2.41. The value for `CSCCC(NC(=O)C(Cc1ccccc1)NC(=O)CNC(=O)C(C)NC(=O)C(N)Cc1ccc(O)cc1)C(=O)O` (configuration not stated) was -0.59; that for `COCCCNc1[nH]cnc2ncnc1-2` was 0.75; that for `CCOC(=O)C1=C(C)NC(C)=C(C(=O)OC(C)C)C1c1cccc2c1OCO2` (configuration not stated) was 4.71. In the case of `CCCCON=C(C)c1cccc(Oc2nc(OC)cc(OC)n2)c1C(=O)OC` it was 4.11. The value for `COC(=O)C(C)(C)S(=O)(=O)c1ccc([N+](=O)[O-])cc1` was 1.38; that for `COc1ccc2cc(C(C)C(=O)OCCCCOC(C)=O)ccc2c1` (configuration not stated) was 3.3. For `CSCCC(N)C(=O)NC(CC(C)C)C(=O)NC(Cc1ccccc1)C(=O)O` (configuration not stated), the logP is -1.03.

Take `Brc1c2ccccc2cc2ccccc12`: the logP came out at 5.37. As for `FC(F)(F)c1ccccc1CNc1[nH]cnc2ncnc1-2`, the logP was 3.04. In the case of `CC1(C)SC2C(NC(=O)C(c3ccccc3)S(=O)(=O)O)C(=O)N2C1C(=O)O` (configuration not stated) it was -0.22.

The compound `NC(Cc1ccccc1)C(=O)NC(Cc1ccccc1)C(=O)O` (stereo not drawn) (H-Phe-Phe-OH; configuration not given here) returned a logP of -0.85. The value for `CCN(CC)CC(=O)Nc1ccc(N)cc1` was 1.09. The value for `O=C1Nc2ccc3cc4ccccc4nc3c2CO1` was 1.64; that for `CC(C)n1cccc(O)c1=O` was 0.79; that for `CCC(C)C(N)C(=O)N1CCCC1C(=O)NCC(=O)NC(C(=O)O)C(C)CC` (configuration not stated) (H-IPGI-OH; configuration not given here) was -1.69.

For the compound `Cc1cc2ccc3occ(C)c3c2oc1=O`, the logP worked out at 2.97. In the case of `COc1ccc(-c2ccsc2)cc1CNC1CCCNC1c1ccccc1` (configuration not stated) it was 4.8. The value for `NC(Cc1c[nH]c2ccccc12)C(=O)NC(Cc1ccc(O)cc1)C(=O)O` (configuration not stated) was -1.13.

In the case of `O=C(NCCNCC(O)COc1ccc(CCOCCOCC2CC2)cc1)N1CCC(O)CC1` (configuration not stated), the logP turned out to be 1. The value for `CC(=O)NC(CCCCN(Cc1ccccc1)C(=O)N(CCCl)N=O)C(=O)NCc1ccccc1` (configuration not stated) was 2.46; that for `N#CN=C1NCCN1Cc1cnccc1Cl` was 0.77. In the case of `COc1ccc2cc(C(C)C(=O)OCOC(C)=O)ccc2c1` (configuration not stated) it was 3.4; in that of `Cc1nc2c3c(c(C(=O)N(C)C)cn2c1C(=O)N(C)C)CCC(c1ccccc1)O3` (configuration not stated), 1.89.

`CN1CCc2cccc(Cl)c2CC1` registered a logP of 2.92.

In the case of `O=c1ccc2cc3ccoc3cc2s1`, the logP worked out at 2.61.

`N=C(N)Nc1nc(-c2ccc(N)cc2)cs1` returned a logP of 1.08. In the case of `COc1ccc2cc(C(C)C(=O)OCCCOC(C)=O)ccc2c1` (configuration not stated) it was 3.3. `CC(C)c1cccc(O)c(=O)c1` came in with a logP of 1.82. The value for `COC(=O)C(=Cc1ccccc1)S(=O)(=O)c1ccc([N+](=O)[O-])cc1` was 2.9; that for `CON(C)C(=O)Nc1cccc(CO)c1` was 0.62. The value for `Cc1cc2c(cc(C)c3ccc(=O)oc32)o1` was 2.92; that for `COC1=C(Cl)C(=O)c2ccccc2C1=O` was 2.15. Compound `Oc1ccc(CNc2ncnc3nc[nH]c23)cc1` gave a logP of 1.55.

`CC(C)CC(N)C(=O)NC(CO)C(=O)NC(CC(C)C)C(=O)O` (stereo not drawn) (H-Leu-Ser-Leu-OH; configuration not given here) yielded a logP of -2.35. The value for `COC(=O)C1=C(C)NC(C)=C(C(=O)OC)C1c1cccc2c1OCO2` was 3.46; that for `CN1CC(O)N(C(=O)NC(C)(C)C)C1=O` (configuration not stated) was 1.38; that for `CCOCCOCCOc1ccc(NC(=O)NC23CC4CC(CC(C4)C2)C3)cc1` was 3.9. `CCCCCCCCCCCCNCCO` showed a logP of 4.51.

Turning to `CC(C)(C)c1ccc(C(O)CCCN2CCC(C(O)c3ccccc3)CC2)cc1` (configuration not stated), the logP worked out at 4.06. The compound `CCCC(=NOCC)C1=C(O)CC2(CCC(CC(C)(C)C)CC2)OC1=O` (configuration not stated) registered a logP of 5.3. In the case of `CCOc1cc2ncnc(Nc3cccc(Br)c3)c2cc1OCC` it was 4.4; in that of `Nc1nnnn1-c1cc(Cl)ccc1Cl`, 1.61. The value for `Cc1sc2cc3oc(=O)cc(C)c3cc2c1C` was 3.48; that for `CC(C)(C)c1ccc(C(CCN2CCCCC2)c2ccccc2)cc1` (configuration not stated) was 6.83; that for `CS(=O)(=O)CC(=O)C=NO` was -0.69. `COc1ccc(-c2cc(=O)ss2)cc1` had a logP of 3.19. In the case of `COC(=O)C(C)NP(=O)(OCC1C=CC(n2cc(C)c(=O)[nH]c2=O)O1)Oc1ccccc1` (configuration not stated) it was 1.04; in that of `c1ccc(CCN2CCN(CCn3nc4ccccc4n3)CC2)cc1`, 3.72. In the case of `CSC(=S)N1CCCCC1` it was 1.7; in that of `CCCCCNCc1ccc(C)cc1`, 4.26; in that of `CCOP(=O)(OCC)C(C)(C)[N+]([O-])=Cc1c(OC)cc(OC)cc1OC`, 1.03. `CC(=O)Oc1cc(OC(C)CCCc2ccccc2)cc2c1C1CC(O)CCC1C(C)N2` (configuration not stated) showed a logP of 5.7. In the case of `S=c1[nH]nc(Cn2ccc3ccccc32)n1-c1ccccc1` it was 2.68; in that of `Cc1nccc2c3ccccc3n(C)c12`, 3.01; in that of `O=C(NC1CCCCCC1)NS(=O)(=O)c1cnccc1NC1CCCCCCC1`, 5.35. `Nc1nc(N)c2c(Br)cccc2n1` came in with a logP of 1.91.

In turn, `CCc1ccc(CNc2[nH]cnc3ncnc2-3)cc1` gave a logP of 3.17.

In turn, `Clc1ccccc1CNc1ncnc2nc[nH]c12` showed a logP of 2.76. The value for `COc1ccc(C2Cc3cc(SC(C)(C)C)ccc3N(CCN(C)C)C(=O)C2OC(C)=O)cc1` (configuration not stated) was 5.6; that for `O=Cc1ccc(Cl)cc1O` was 2.49; that for `O=c1cc(CSc2ccccn2)occ1O` was 1.14. In the case of `O=C(NC1CCCCC1)NS(=O)(=O)c1cnccc1NC1CCCCCCC1` it was 4.96; in that of `CC(C)C(C)NC(CO)C(O)c1ccccc1` (configuration not stated), 1.61; in that of `NC(=O)C(CCCN1CC2CCC(CC2)C1)(c1ccccc1)c1ccccn1` (configuration not stated), 2.88. In the case of `Cc1ccc(Cc2c[nH]cn2)cc1C` it was 2.72; in that of `CC(C)NC(=NC#N)NS(=O)(=O)c1cnccc1Nc1cccc(Br)c1`, 2.27. In the case of `COc1c([N+](=O)[O-])cc(C(=O)O)cc1[N+](=O)[O-]`, the lipophilicity (logP) came out at 1.73. In turn, `NC(Cc1ccccc1)C(=O)NC(Cc1ccccc1)C(=O)NC(Cc1ccccc1)C(=O)O` (stereo not drawn) (H-Phe-Phe-Phe-OH; configuration not given here) had a logP of -0.02. The compound `Nc1nnnn1-c1ccc(Cl)c(Cl)c1` came in with a logP of 2.06. The value for `Cc1cccc(C)c1OCCN(C)C` was 2.74; that for `C=CCNC(=O)N(CCCC(NC(C)=O)C(=O)NCc1ccccc1)Cc1ccccc1` (configuration not stated) was 1.44; that for `COc1ccc2c(c1)OCN(CCO[N+](=O)[O-])C2=O` was 2.09. `CC(C(=O)O)c1ccc(OCc2ccccc2)c(F)c1` (configuration not stated) returned a logP of 3.61. The value for `Cc1ccc([N+](=O)[O-])c(C(=O)O)c1` was 1.63; that for `CCN(CC)CCNC(=O)c1c(C)cc(N)cc1C` was 0.98; that for `Cc1c(C)c2cc3c(C)coc3c(C)c2oc1=O` was 3.62. With `CC(NC(=O)C(NC(=O)C(N)Cc1ccccc1)C(C)C)C(=O)O` (stereo not drawn) (H-Phe-Val-Ala-OH; configuration not given here), the logP was -2.19. As for `CCC(C)C(NC(=O)C(NC(=O)C(N)CC(C)C)C(C)O)C(=O)O` (stereo not drawn) (H-Leu-Thr-Ile-OH; configuration not given here), the logP was -2.3.

As for `COc1ccc(C2Cc3c(cccc3C(F)(F)F)N(CCN(C)C)C(=O)C2OC(C)=O)cc1` (configuration not stated), the logP amounted to 4.9. Compound `Cc1cc(=O)oc2c(C)c3occc3cc12` gave a logP of 2.82. `C=CCNc1nc(CCC)nc(N2CCOCC2)n1` gave a logP of 2.37. The value for `O=C(CCCN=C=S)c1cccnc1` was 1.79; that for `C=C(C)C(=O)OCCCCCCCC(C)C` was 5.28; that for `Cc1nc2c3c(c(C(=O)N(C)C)cn2c1C)CCC(c1cccs1)O3` (configuration not stated) was 2.8. The value for `NC(=O)C(N)Cc1c[nH]c2ccccc12` (configuration not stated) was 0.3; that for `Cc1coc2c1c(C)cc1oc(=O)cc(C)c12` was 3.28; that for `Cc1[nH]cnc1CSCCNc1ncc(Cc2cccc3c2OCO3)c(=O)n1C` was 2.51. The value for `CCOc1cc2ncnc(Nc3ccccc3F)c2cc1OCC` was 3.02. In the case of `Clc1ccc2oc3c(Cl)c(Cl)cc(Cl)c3c2c1`, the logP worked out at 6.13. The compound `COc1ccc(-n2nnnc2N)cc1` came in with a logP of 0.85. The value for `CCC(C)c1cnc(CC(C)C)c(=O)n1O` (configuration not stated) was 1.81; that for `Cc1nc2ccccc2c(=O)n1CC(=O)NCc1ccccc1` was 1.78. In the case of `CC(C)CCCCCNc1[nH]cnc2ncnc1-2` it was 4.16; in that of `Cc1coc2cc3oc(=O)ccc3cc12`, 2.47. Turning to `OCCCCCCCCCNc1[nH]cnc2ncnc1-2`, the logP was determined as 2.75. The value for `O=[N+]([O-])c1nccn1CC(O)C(O)CF` (configuration not stated) was -0.77; that for `NS(=O)(=O)c1ncncc1-c1ccccc1` was 0.5; that for `NC(Cc1c[nH]c2ccccc12)C(=O)NC(Cc1c[nH]c2ccccc12)C(=O)NC(Cc1c[nH]c2ccccc12)C(=O)O` (stereo not drawn) (H-Trp-Trp-Trp-OH; configuration not given here) was 0.66.

A word on the logP: it is the decadic logarithm of the partition coefficient of the neutral form, usually between octanol and water. A higher logP goes with higher lipophilicity.
